Test results as given in PubChem BioAssay AID2060503 (Molecular Pharmacology Branch, DTP, NCI, 2025).

System: 817829-284-R-J1-PDC complex spheroids, viability
Assay: Anticancer human tumor 817829-284-R-J1-PDC patient-derived colon adenocarcinoma cell line growth inhibition [GQUAD]
Conditions: for IC50: curve of first compound; for viability, T/C: stronger effect = lower value
Source text: DNA G-quadruplex Stabilizer Agents in Combinations in Complex Spheroids
A high-throughput screen of multi-cell type tumor spheroids was designed to identify active combinations of DNA G-quadruplex stabilizer agents and targeted small molecules. Complex spheroids include a stromal component modeled by human endothelial cells (HUVEC) and fibroblasts modeled by human mesenchymal stem cells (MSCs). The concentration ranges selected for each drug and investigational agent were based upon clinically achievable concentrations if the clinical Cmax of the agent was known.
Compounds. The drugs and investigational agents: pidnarulex (CX-5461; NSC782164), APTO-253 (NSC789042), BRACO-19 (NSC847499), peposertib (NSC802822), ceralasertib (NSC780249), elimusertib (NSC800525), camonsertib (NSC841442), AZD-1390 (NSC803789), olaparib (NSC753686), talazoparib (NSC767125), ART-558 (NSC835418), sotorasib (NSC818433), MRTX-1133 (NSC836407), SN-38 (NSC673596), topotecan (NSC609699), etoposide (NSC141540), doxorubicin (NSC123127), gemcitabine (NSC613327), 5-fluorouracil (NSC19893), paclitaxel (NSC125973), vemurafenib (NSC761431), panobinostat (NSC761190), R-306465 (JNJ-16241199; NSC773264), adavosertib (NSC754352), TP-3654 (NSC805149), carboplatin (NSC241240), KSQ-4279 (NSC840948), and staurosporine (NSC755774) were obtained from the National Cancer Institute (NCI) Developmental Therapeutics Program Chemical Repository (34). The FDA-approved anticancer drug set is available from the NCI Developmental Therapeutics Program. […] The stock solutions were prepared in dimethyl sulfoxide (DMSO, Sigma-Aldrich, St. Louis, MO, cat. D2650) at 800-fold the tested concentration and stored at -70 degrees C prior to their use. All drugs and investigational agents were tested over a range starting from a high concentration at or near the clinical Cmax and decreasing in half-log increments. If the clinical Cmax for an agent had not been determined, the highest concentration tested was 10 microM.
2.3 Cell Culture. All cells were maintained in an incubator at 37 degrees C and 5% CO2 with 95% humidity. The PDC lines were cultured according to standard operating procedures established by the NCI PDMR. All PDCs were thawed and cultured in Matrigel-coated flasks prepared with a working solution of 1X Ham's F-12 nutrient mix, without supplementation (Invitrogen, cat. 11765054), 100 U/mL penicillin-streptomycin (Invitrogen, cat. 15140122), and 2.5% Matrigel (Corning Inc., cat. 354248) for the first three passages. The 857933-349-R-J2-PDC line was cultured in 6C/Colon 1B media, which includes advanced DMEM/F-12 (Thermo Fisher Scientific, cat. 12634028), 10 mM HEPES (Thermo Fisher Scientific, cat. 15630080), 1X GlutaMAX supplement (Thermo Fisher Scientific, cat. 35050061), 0.1 mg/mL primocin (InvivoGen, cat. ant-pm-2), 10% defined fetal bovine serum, heat inactivated (HyClone Laboratories Inc., cat. SH30070.03HI), 50% L-WRN conditioned media (ATCC, cat. CRL-3276), 1.25 mM N-Acetyl-L-cysteine (Sigma-Aldrich, cat. A9165), 10 mM nicotinamide (Sigma-Aldrich, cat. N0636), 1X B-27 supplement (Thermo Fisher Scientific, cat. 17504044), 1X N-2 supplement (Thermo Fisher Scientific, cat. 17502048), 10 microM Y-27632 dihydrochloride (Tocris Bioscience, cat. 1254), and 50 ng/mL human EGF recombinant protein (Thermo Fisher Scientific, cat. PHG0311). The 485176-168-R4-J1-PDC line was cultured in Panc media, which includes all 6C/Colon 1B media components plus 100 ng/mL human FGF-10 (Thermo Fisher Scientific, cat. 100-26), 500 nM SB-431542 (Selleckchem, cat. S1067), and gastrin (Tocris, cat. 3006).
[…]

[1] = second compound 0.0316 µM, first compound 0.0316 µM
[2] = second compound 0.0316 µM, first compound 0.1 µM
[3] = second compound 0.0316 µM, first compound 0.316 µM
[4] = second compound 0.0316 µM, first compound 1 µM
[5] = second compound 0.0316 µM, first compound 3.16 µM
[6] = second compound 0.0316 µM, first compound 10 µM
[7] = second compound 0.1 µM, first compound 0.0316 µM
[8] = second compound 0.1 µM, first compound 0.1 µM
[9] = second compound 0.1 µM, first compound 0.316 µM
[10] = second compound 0.1 µM, first compound 1 µM
[11] = second compound 0.1 µM, first compound 3.16 µM
[12] = second compound 0.1 µM, first compound 10 µM
[13] = second compound 0.316 µM, first compound 0.0316 µM
[14] = second compound 0.316 µM, first compound 0.1 µM
[15] = second compound 0.316 µM, first compound 0.316 µM
[16] = second compound 0.316 µM, first compound 1 µM
[17] = second compound 0.316 µM, first compound 3.16 µM
[18] = second compound 0.316 µM, first compound 10 µM
[19] = second compound 1 µM, first compound 0.0316 µM
[20] = second compound 1 µM, first compound 0.1 µM
[21] = second compound 1 µM, first compound 0.316 µM
[22] = second compound 1 µM, first compound 1 µM
[23] = second compound 1 µM, first compound 3.16 µM
[24] = second compound 1 µM, first compound 10 µM
[25] = second compound 3.16 µM, first compound 0.0316 µM
[26] = second compound 3.16 µM, first compound 0.1 µM
[27] = second compound 3.16 µM, first compound 0.316 µM
[28] = second compound 3.16 µM, first compound 1 µM
[29] = second compound 3.16 µM, first compound 3.16 µM
[30] = second compound 3.16 µM, first compound 10 µM
[31] = second compound 10 µM, first compound 0.0316 µM
[32] = second compound 10 µM, first compound 0.1 µM
[33] = second compound 10 µM, first compound 0.316 µM
[34] = second compound 10 µM, first compound 1 µM
[35] = second compound 10 µM, first compound 3.16 µM
[36] = second compound 10 µM, first compound 10 µM
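Further: spheroids exposed to agents for 7 days before readout.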
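Wherever viability, T/C is given: percent viability relative to DMSO vehicle control taken as 100%.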

Structure (SMILES): CC(C)n1c(=O)n(C)c2cnc3cc(F)c(-c4ccc(OCCCN5CCCCC5)nc4)cc3c21 + CN(C)c1ccc(Nc2c3ccc(NC(=O)CCN4CCCC4)cc3nc3cc(NC(=O)CCN4CCCC4)ccc23)cc1
- IC50 (second compound 0.0316 µM): > 10000 nM
- IC50 (second compound 0.1 µM): > 10000 nM
- IC50 (second compound 0.316 µM): > 10000 nM
- IC50 (second compound 1 µM): > 10000 nM
- IC50 (second compound 3.16 µM): > 10000 nM
- IC50 (second compound 10 µM): 414 nM
- viability, T/C [1]: 92.8%
- viability, T/C [2]: 104%
- viability, T/C [3]: 108%
- viability, T/C [4]: 107%
- viability, T/C [5]: 105%
- viability, T/C [6]: 116%
- viability, T/C [7]: 101%
- viability, T/C [8]: 107%
- viability, T/C [9]: 94.3%
- viability, T/C [10]: 101%
- viability, T/C [11]: 105%
- viability, T/C [12]: 108%
- viability, T/C [13]: 96.8%
- viability, T/C [14]: 98.3%
- viability, T/C [15]: 96%
- viability, T/C [16]: 102%
- viability, T/C [17]: 104%
- viability, T/C [18]: 110%
- viability, T/C [19]: 94.1%
- viability, T/C [20]: 109%
- viability, T/C [21]: 97.6%
- viability, T/C [22]: 96.2%
- viability, T/C [23]: 91.1%
- viability, T/C [24]: 94.6%
- viability, T/C [25]: 90.8%
- viability, T/C [26]: 105%
- viability, T/C [27]: 89.4%
- viability, T/C [28]: 70.8%
- viability, T/C [29]: 61.1%
- viability, T/C [30]: 54.5%
- viability, T/C [31]: 72.7%
- viability, T/C [32]: 61.9%
- viability, T/C [33]: 51.7%
- viability, T/C [34]: 46%
- viability, T/C [35]: 21%
- viability, T/C [36]: 13.2%

Structure (SMILES): CC1COCCN1c1cc(-c2ccnn2C)c2ccnc(-c3ccn[nH]3)c2n1 (centres undefined) + CN(C)c1ccc(Nc2c3ccc(NC(=O)CCN4CCCC4)cc3nc3cc(NC(=O)CCN4CCCC4)ccc23)cc1
- IC50 (second compound 0.0316 µM): < 31.6 nM
- IC50 (second compound 0.1 µM): < 31.6 nM
- IC50 (second compound 0.316 µM): < 31.6 nM
- IC50 (second compound 1 µM): < 31.6 nM
- IC50 (second compound 3.16 µM): < 31.6 nM
- IC50 (second compound 10 µM): < 31.6 nM
- viability, T/C [1]: 49.1%
- viability, T/C [2]: 21.1%
- viability, T/C [3]: 10.9%
- viability, T/C [4]: 7.46%
- viability, T/C [5]: 6.76%
- viability, T/C [6]: 6.4%
- viability, T/C [7]: 43.7%
- viability, T/C [8]: 19.4%
- viability, T/C [9]: 9.94%
- viability, T/C [10]: 7.09%
- viability, T/C [11]: 6.81%
- viability, T/C [12]: 5.85%
- viability, T/C [13]: 41.3%
- viability, T/C [14]: 20.7%
- viability, T/C [15]: 9.46%
- viability, T/C [16]: 9.2%
- viability, T/C [17]: 6.26%
- viability, T/C [18]: 5.57%
- viability, T/C [19]: 45.9%
- viability, T/C [20]: 19.1%
- viability, T/C [21]: 9.31%
- viability, T/C [22]: 8.05%
- viability, T/C [23]: 7.11%
- viability, T/C [24]: 5.77%
- viability, T/C [25]: 36.6%
- viability, T/C [26]: 16.5%
- viability, T/C [27]: 9.69%
- viability, T/C [28]: 9.19%
- viability, T/C [29]: 7.57%
- viability, T/C [30]: 5.75%
- viability, T/C [31]: 25%
- viability, T/C [32]: 16.9%
- viability, T/C [33]: 8.98%
- viability, T/C [34]: 6.93%
- viability, T/C [35]: 5.14%
- viability, T/C [36]: 3.02%
